# From patent publication US20240317727A1 (Duke University, priority 2018, published 2024)
# What was measured:
# [1] = system: SN12C; assay: NCI60 cell growth and viability: SN12C; assay type: cell-based; conditions: Renal Cancer, two days
# [2] = system: SNB-75; assay: NCI60 cell growth and viability: SNB-75; assay type: cell-based; conditions: SNB-75, CNS Cancer, two days
# [3] = system: 786-0; assay: NCI60 cell growth and viability: 786-0; assay type: cell-based; conditions: 786-0, Renal Cancer, two days
# [4] = system: CCRF-CEM; assay: NCI60 cell growth and viability: CCRF-CEM; assay type: cell-based; conditions: Leukemia, two days
# [5] = system: UO-31; assay: NCI60 cell growth and viability: UO-31; assay type: cell-based; conditions: UO-31, Renal Cancer, two days
# [6] = system: OVCAR-3; assay: NCI60 cell growth and viability: OVCAR-3
# [7] = system: NCI-H226; assay type: cell-based; conditions: NCI-H226, Non-Small Cell Lung Cancer, two days
# [8] = system: COLO 205; assay: NCI60 cell growth and viability: COLO 205; assay type: cell-based; conditions: COLO 205, Colon Cancer, two days
# [9] = system: T-47D; assay: NCI60 cell growth and viability: T-47D; assay type: cell-based; conditions: Breast Cancer, two days
# [10] = system: UACC-257; assay: NCI60 cell growth and viability: UACC-257; assay type: cell-based; conditions: UACC-257, Melanoma, two days
# [11] = system: SK-MEL-28; assay: NCI60 cell growth and viability: SK-MEL-28; assay type: cell-based; conditions: SK-MEL-28, Melanoma, two days
# [12] = system: DU-145; assay: NCI60 cell growth and viability: DU-145; assay type: cell-based; conditions: DU-145, Prostate Cancer, two days
# [13] = system: HT29; assay: NCI60 cell growth and viability: HT29; assay type: cell-based; conditions: HT29, Colon Cancer, two days
# [14] = system: UACC-62; assay: NCI60 cell growth and viability: UACC-62; assay type: cell-based; conditions: UACC-62, Melanoma, two days
# [15] = system: M14; assay: NCI60 cell growth and viability: M14; assay type: cell-based; conditions: M14, Melanoma, two days
# [16] = 7-week Maximal Tolerated Dose (MTD) study in mice; assay type: in vivo; conditions: 25 mpk three times per week, intra-peritoneal, 7 weeks
# [17] = system: NCI-H522; assay type: cell-based; conditions: NCI-H522, Non-Small Cell Lung Cancer, two days
# [18] = system: C4-2 malignant prostate cancer cells vs BPH-1 non-tumorigenic prostate cells; assay: AlamarBlue cell viability, C4-2 vs BPH-1; assay type: cell-based, human; conditions: 96 hours, AlamarBlue assay, FIG. 6A
# Experimental: The cells were treated for 96 hours with the indicated concentrations of the compounds of the disclosure and cell viability was measured with the AlamarBlue assay. FIG. 6B illustrates the results of Compound 0017 used in a 7-week Maximal Tolerated Dose (MTD) study conducted in mice (3 mice identified as 118, 119 and 120). […] After sacrificing the mice on the last day of the administration, mouse liver and heart tissue was isolated, messenger RNA extracted and the transcript abundance of the HSF1 target gene, Hsp70, was evaluated by qRT-PCR relative to the internal RNA control, GAPDH. The results of the vehicle-treated versus Compound 0017-treated experiments were compared.
# Based on the chemical structure of Compound 0017 and its activity, and of other HSF1-interacting chemicals identified in the screen, additional derivatives were designed, synthesized and evaluated for binding to HSF1 and preferential inhibition of metastatic prostate cancer cells (C4-2) versus benign prostate cells (BPH-1).
# [19] = system: SF-539; assay: NCI60 cell growth and viability: SF-539; assay type: cell-based; conditions: SF-539, CNS Cancer, two days
# [20] = system: RXF 393; assay: NCI60 cell growth and viability: RXF 393; assay type: cell-based; conditions: RXF 393, Renal Cancer, two days
# [21] = system: MOLT-4; assay: NCI60 cell growth and viability: MOLT-4; assay type: cell-based; conditions: MOLT-4, Leukemia, two days
# [22] = Homo sapiens, 48 h, read-out: log10 [GI50 (M)] (converted)
# [23] = Homo sapiens, 48 h, read-out: log10 [LC50 (M)] (converted)
compound,measurement,setting,value
"O=C(Nc1ccc(F)cc1)Nc1ccc(Cl)c([N+](=O)[O-])c1 [Compound 0017, 1-(4-chloro-3-nitrophenyl)-3-(4-fluorophenyl)urea]",GI50,[1]; [22],2.95e-06 M
same,CC50,[1]; [23],4.27e-05 M
same,log10 [TGI (M)],[1],−4.93 log10 M
same,GI50,[2]; [22],5.89e-06 M
same,CC50,[2]; [23],≥ 0.0001 M
same,log10 [TGI (M)],[2],−4.00 log10 M
same,log10 [TGI (M)],[3],−4.88 log10 M
same,GI50,[3]; [22],3.39e-06 M
same,CC50,[3]; [23],3.8e-05 M
same,GI50,[4]; [22],3.31e-06 M
same,CC50,[4]; [23],≥ 0.0001 M
same,log10 [TGI (M)],[4],−4.00 log10 M
same,GI50,[5]; [22],2.69e-06 M
same,CC50,[5]; [23],3.47e-05 M
same,log10 [TGI (M)],[5],−4.97 log10 M
same,GI50,"[6]; Homo sapiens, OVCAR-3, 48 h, read-out: log10 [GI50 (M)] (converted)",3.8e-06 M
same,CC50,"[6]; Homo sapiens, OVCAR-3, 48 h, read-out: log10 [LC50 (M)] (converted)",9.55e-05 M
same,log10 [TGI (M)],"[6]; OVCAR-3, Ovarian Cancer, two days",−4.72 log10 M
same,GI50,[7]; [22],2.29e-06 M
same,LC50,[7]; [23],3.63e-05 M
same,log10 [TGI (M)],[7],−5.03 log10 M
same,log10 [TGI (M)],[8],−5.20 log10 M
same,GI50,[8]; [22],2.45e-06 M
same,CC50,[8]; [23],3.47e-05 M
same,log10 [TGI (M)],[9],−5.01 log10 M
same,GI50,"[9]; Homo sapiens, T47D, 48 h, read-out: log10 [GI50 (M)] (converted)",2.19e-06 M
same,CC50,"[9]; Homo sapiens, T47D, 48 h, read-out: log10 [LC50 (M)] (converted)",5.13e-05 M
same,GI50,[10]; [22],2.75e-06 M
same,CC50,[10]; [23],3.09e-05 M
same,log10 [TGI (M)],[10],−5.05 log10 M
same,GI50,[11]; [22],3.8e-06 M
same,CC50,[11]; [23],3.8e-05 M
same,log10 [TGI (M)],[11],−4.85 log10 M
same,log10 [TGI (M)],[12],−4.67 log10 M
same,GI50,[12]; [22],4.47e-06 M
same,CC50,[12]; [23],≥ 0.0001 M
same,log10 [TGI (M)],[13],−4.91 log10 M
same,GI50,"[13]; Homo sapiens, HT-29, 48 h, read-out: log10 [GI50 (M)] (converted)",3.24e-06 M
same,CC50,"[13]; Homo sapiens, HT-29, 48 h, read-out: log10 [LC50 (M)] (converted)",5.37e-05 M
same,GI50,[14]; [22],3.02e-06 M
same,CC50,[14]; [23],3.63e-05 M
same,log10 [TGI (M)],[14],−4.88 log10 M
same,GI50,[15]; [22],3.16e-06 M
same,CC50,[15]; [23],3.8e-05 M
same,log10 [TGI (M)],[15],−4.91 log10 M
same,tolerability,[16],well tolerated
same,GI50,[17]; [22],2.45e-06 M
same,CC50,[17]; [23],4.68e-05 M
same,log10 [TGI (M)],[17],−4.97 log10 M
same,viability of C4-2 compared to BPH-1,[18],preferentially inhibit the viability
same,GI50,[19]; [22],3.89e-06 M
same,CC50,[19]; [23],4.07e-05 M
same,log10 [TGI (M)],[19],−4.84 log10 M
same,GI50,[20]; [22],1.74e-06 M
same,CC50,[20]; [23],2.82e-05 M
same,log10 [TGI (M)],[20],−5.17 log10 M
same,GI50,[21]; [22],3.16e-06 M
same,CC50,[21]; [23],≥ 0.0001 M
same,log10 [TGI (M)],[21],−4.03 log10 M
